Test results from PubChem BioAssay (NCI).
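Growth conditions: 96-well plates. Treatment: test compound, 48 hours, 5 concentrations. Analysis: linear interpolation between bracketing concentrations; unreached endpoints set to highest concentration. GI50 marks 50% less growth. TGI is the concentration that stops growth completely.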

Assays:
Assay in all cases: inhibition of tumour cell growth, NCI panel, 48 h
MDA-MB-231 breast = tested on: MDA-MB-231 breast
SR leukemia = tested on: SR leukemia
EKVX NSCLC = tested on: EKVX NSCLC
CAKI-1 renal = tested on: CAKI-1 renal
MALME-3M melanoma = tested on: MALME-3M melanoma
SNB-19 CNS = tested on: SNB-19 CNS
PC-3 prostate = tested on: PC-3 prostate
MOLT-4 leukemia = tested on: MOLT-4 leukemia
NCI-H460 lung = tested on: NCI-H460 lung

| SMILES | TGI (MDA-MB-231 breast) [µM] | TGI (SR leukemia) [µM] | TGI (EKVX NSCLC) [µM] | TGI (CAKI-1 renal) [µM] | TGI (MALME-3M melanoma) [µM] | TGI (SNB-19 CNS) [µM] | TGI (PC-3 prostate) [µM] | TGI (MOLT-4 leukemia) [µM] | GI50 (MDA-MB-231 breast) [µM] | GI50 (SR leukemia) [µM] | GI50 (EKVX NSCLC) [µM] | GI50 (CAKI-1 renal) [µM] | GI50 (SNB-19 CNS) [µM] | GI50 (PC-3 prostate) [µM] | GI50 (NCI-H460 lung) [µM] | TGI (NCI-H460 lung) [µM] | GI50 (MOLT-4 leukemia) [µM] | GI50 (MALME-3M melanoma) [µM] |
| --- | --- | --- | --- | --- | --- | --- | --- | --- | --- | --- | --- | --- | --- | --- | --- | --- | --- | --- |
| COc1cc(C(=O)CBr)c(OC)cc1C | > 100 | > 100 | > 100 | > 100 | > 100 | > 100 | > 100 | > 100 | – | – | – | – | – | – | – | – | – | – |
| CCCCCCCC(=O)OCC/C=C/C1OC1C1OC(=O)/C=C\C=C\c2nc(oc2C)/C=C(/C)CCC2OC2C1OC(=O)NC(C)=O (stereo not drawn) | 6.38 | 0.89 | 1.64 | 1.56 | – | 1.16 | 1.84 | 1.81 | 0.0625 | 0.0173 | 0.0419 | 0.0664 | 0.0605 | 0.0272 | 0.0192 | 0.495 | 0.047 | – |
| O=C(CC1C(=O)NN(c2ccc(Br)cc2)C1=O)c1cc(O)ccc1O (stereo not drawn) | 22.4 | > 50 | > 50 | 35.7 | – | > 50 | > 50 | > 50 | 8.44 | > 50 | 27.8 | 14.4 | 22.7 | 24.1 | 23 | > 50 | > 50 | – |
| O=c1cc(-c2ccccc2)oc2cc(OC/C(=N/O)c3ccccc3)ccc12 | 23.9 | > 50 | > 50 | > 50 | – | > 50 | 38.4 | > 50 | 6.98 | 31.8 | 24.8 | 12.8 | 18.2 | 9.4 | 14.2 | > 50 | > 50 | – |
| COc1ccc(-c2nc(-c3nc4ccc(Cl)cc4[nH]3)c3ccccn23)cc1 | 7.75 | > 100 | – | 5.03 | 5.57 | 20.7 | 5.63 | > 100 | 2.77 | 12.6 | – | 2.09 | 3.6 | 2.13 | 2.23 | 5.29 | > 100 | 2.35 |
| CS(=O)(=O)c1ccc(-n2nc(C(F)(F)F)cc2OC2CCCC2)cc1 | 71.2 | 47.9 | > 100 | 54.4 | – | > 100 | > 100 | > 100 | 26 | 19.8 | 82.5 | 21.1 | 48.7 | 27.7 | 27.8 | > 100 | 35.9 | – |
| COc1cc[nH]c1/C=C1\C(=O)Nc2ccc(F)c(C#CC3(O)CCNCC3)c21 | 1 | 0.141 | – | 0.472 | 1.11 | 2.15 | 1.95 | 0.965 | 0.169 | 0.00864 | – | 0.0181 | 0.564 | 0.181 | 0.0778 | 0.747 | 0.063 | 0.405 |
| O=S(=O)(NC1=NCCN1C(=S)SN1CCn2c1nsc2=S)c1cccc(Cl)c1 | 50.7 | 50.7 | > 100 | 23.5 | – | 44.4 | 47.2 | > 100 | 15.3 | 4.89 | 38.7 | 6.24 | 19.1 | 15.4 | 22.5 | 72.9 | 12.8 | – |
| O=C(O)/C=C(\c1nc2ccc([N+](=O)[O-])cc2[nH]1)c1cc(Cl)ccc1O | 9.25 | 18.5 | 28.2 | – | 7.52 | > 100 | > 100 | 9.7 | 2.11 | 3.23 | 2.44 | – | 3.5 | 2.25 | 3.03 | 17.9 | 2.26 | 1.96 |
| CCCn1c(=S)sc2c1nc(C)n1c(Nc3ccccc3)nnc21 | 33 | 16 | – | 62.4 | > 100 | > 100 | 34.5 | 48.3 | 9.71 | 1.83 | – | 6.05 | 3.94 | 4.04 | 3.5 | 13.8 | 3.02 | 2.94 |
| COc1cc2cc(Oc3ccc(NC(=O)Nc4ccc(Cl)c(C(F)(F)F)c4)cc3)c(C)nc2cc1OCCN1CCOCC1 | 5.07 | – | 13.7 | 10.8 | 3.27 | 19.8 | 6 | 10.5 | 2 | – | 2.07 | 1.8 | 3.23 | 1.36 | 1.65 | 3.62 | 1.48 | 1.52 |
| O=C1CCC2(c3ccccc3)Nc3ccncc3N12 (stereo not drawn) | > 10 | > 10 | > 10 | – | > 10 | > 10 | > 10 | > 10 | – | – | – | – | – | – | – | > 10 | – | – |
| Cn1c2ccccc2c2ccc3c(c21)C(=O)c1ccccc1C3=O | 64.2 | 13.9 | > 100 | 67 | 24.5 | > 100 | 33.2 | – | – | – | – | – | – | – | – | – | – | – |
